Measurements taken from the supplement of paper PMC10290057.
Counter-ions that a name gives are not always drawn.

What was measured:
HCT116 [1] = test: AC50 cell viability (CellTiter-Glo); higher = less potent; conditions: 48 h
HCT116 [2] = test: efficacy (fitted maximal change in viability relative to DMSO control); higher = less cytotoxic (negative = loss of viability); conditions: 48 h
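Wherever AC50 cell viability (CellTiter-Glo) is given: HCT116 colorectal carcinoma cells screened at five concentrations per compound, luminescent viability scaled between DMSO wells and empty wells on each plate, curves fitted per compound.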
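Wherever efficacy (fitted maximal change in viability relative to DMSO control) is given: Luminescence-based viability readout, five doses per compound, normalized against on-plate DMSO and empty-well controls, followed by dose-response curve fitting for every drug.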

| Structure (SMILES) | AC50 cell viability (HCT116 [1]) [µM] | efficacy (HCT116 [2]) [%] |
| --- | --- | --- |
| CC[C@H](C)C(=O)O[C@H]1CC\C=C2\C=C/[C@H](C)[C@H](CC[C@@H]3C[C@@H](O)CC(=O)O3)[C@@H]12 [Mevastatin] | 14.8 | -58.3 |
| C=CCNC1=C2CC(C)CC(OC)C(O)C(C)/C=C(\C)C(OC(N)=O)C(OC)/C=C/C=C(\C)C(=O)NC(=CC1=O)C2=O (stereo not drawn) [17-AAG (KOS953)] | 0.417 | -60.5 |
| Cn1cc(-c2cnn3c(N)c(Br)c([C@@H]4CCCNC4)nc23)cn1 | 13.2 | -108 |
| CC/1=C(\O)C(=O)\C=C2/C1=C\C=C3/[C@@]2(C)CC[C@@]4(C)[C@@H]5C[C@@](C)(CC[C@]5(C)CC[C@]34C)C(O)=O [Tripterin] | 3.32 | -98.9 |
| C[C@H]1COCCN1c1cc(C2([S+](=O)([O-])C3CC3)CC2)nc(-c2ccc(NC(=S)NCCO)cc2)n1 [AZD-3147] | 7.42 | -113 |
| CCN(CC)CCCCNc1ncc2cc(-c3cc(OC)cc(OC)c3)c(NC(=O)NC(C)(C)C)nc2n1 | 18.6 | -117 |
| CCCCCN(CCC12CC3CC(CC(C3)C1)C2)C(=O)NCCCc1ccncc1 [DE-096] | 16.6 | -90.2 |
| CC(=O)c1cc2c(o1)C(=O)c1ccccc1C2=O [Napabucasin] | 0.934 | -93.8 |
| Cc1cc(OCc2nnc(SC3CCCC3)n2-c2cccnc2)ccc1-c1ccc([S+](C)(=O)[O-])cc1 [NMS-873] | 1.48 | -104 |
| CCOc1cc(C(=O)Nc2ccc(Cl)c(-c3nc4ccccc4[nH]3)c2)cc(OCC)c1OCC [SANT-2] | 2.63 | -37.4 |
| Clc1ccccc1C(c1ccccc1)(c1ccccc1)n1cccn1 [TRAM-34] | 18.6 | -41.5 |
| Cn1ncc2cc(-c3cnc(N)c(Cl)c3N3CCC4(CCNC4=O)CC3)ccc21 | 16.6 | -46.1 |
| COC1=C(OCCCN2CCOCC2)C=CC\3=C1/N=C(/NC(=O)C4=CN=C(N)N=C4)N5CC/N=C35 [Copanlisib] | 0.0679 | -57.4 |
| COc1cccc(OCCCN)c1-c1cc(Nc2cnc(C#N)cn2)n[nH]1 [Prexasertib] | 3.72 | -111 |
| Nc1nc(Nc2ccc3c(c2)CC[C@@H](N2CCCC2)CC3)nn1-c1cc2c(nn1)-c1ccccc1CCC2 [Bemcentinib] | 14.8 | -108 |
| COc1cc2c(Nc3ccc(NC(=O)c4ccccc4)cc3)ncnc2cc1OCCCN1CCOCC1 | 18.6 | -120 |
| CCC1=C2CN3C(=O)\C4=C(/C=C3/C2=NC5=CC=C(O)C=C15)[C@@](O)(CC)C(=O)OC4 [SN-38] | 0.0661 | -79.2 |
| CC(C)[C@@H](N(CCCN)C(=O)C1=CC=C(C)C=C1)C/2=C(\CC3=CC=CC=C3)C(=O)C4=C(O2)C=C(Cl)C=C4 | 8.33 | -34.7 |
| CN(C)CCC=C1C2=C(C=CC=C2)\C=C/C3=C1C=CC=C3 [Cyclobenzaprine hydrochloride] | 18.6 | -92.3 |
| c1ccc(CNc2nc(NCc3ccccc3)c3ccccc3n2)cc1 | 8.33 | -98.7 |

| Structure (SMILES) | AC50 cell viability (HCT116 [1]) [µM] | efficacy (HCT116 [2]) [%] |
| --- | --- | --- |
| COc1ccc(-c2c(-c3ccc(O)cc3O)n[nH]c2C)cc1 [PDHK RIKEN] | 20.9 | -47.1 |
| Nc1nc(-c2nn(Cc3ccccc3F)c3ncccc23)ncc1C1CC1 [BAY-41-2272] | 1.05 | -51.2 |
| CC1=C2N=C([NH]C2=CC(=C1)N3CCOCC3)\C4=C(NC[C@@H](O)C5=CC=CC(=C5)Cl)\C=C/NC4=O | 6.61 | -93.9 |
| COc1ccc(/C=C\c2cc(OC)c(OC)c(OC)c2)cc1NC(=O)[C@H](N)CO [Ombrabulin] | 0.148 | -62.9 |
| O=C(Nc1ncc(SCCN2CCCC2)s1)[C@]1(c2ccc([S+](=O)([O-])C3CC3)cc2)C[C@H]1C1CCCCC1 | 18.6 | -95.8 |
| O=C(Cc1ccc(-c2ccc(OCCN3CCOCC3)cc2)cn1)NCc1ccccc1 [KX-01] | 0.0833 | -59.6 |
| C=C1[C@H](OC(=O)/C=C(\C)CC)C[C@@H](C(C)C)[C@@H]2[C@H]([C@@H](C)OC(C)=O)C(=O)C[C@@H]12 [Tussilagone] | 20.9 | -67.9 |
| CCCCOc1c(C(=O)c2c(F)cc(C)cc2F)cnc2[nH]ncc12 | 1.32 | -75.8 |
| Cc1nc(N)ncc1-c1nc(N2CCOCC2)c2sc(C(C)(C)O)cc2n1 [GNE-490] | 2.63 | -66.6 |
| Cc1cc(N2CCOCC2)ccc1Nc1nc(NC2CCCCC2)c2nc[nH]c2n1 | 6.61 | -59.2 |
| COc1ccc2cc(-c3[nH]c(-c4ccc([S+](C)[O-])cc4)nc3-c3ccncc3)ccc2c1 (stereo not drawn) [Tie-2 kinase Inhibitor] | 23.5 | -89.1 |
| COc1cc(OC)c(/C=C/[S+](=O)([O-])Cc2ccc(OC)c(OP(=O)(O)O)c2)c(OC)c1 [Briciclib] | 0.0468 | -61.6 |
| Cc1ccc(-n2nc(C(C)(C)C)cc2N/C(O)=N/Cc2cc(F)ccc2Oc2ccc3c(cnn3CCO)c2)cc1 [Pexmetinib] | 10.5 | -98.4 |
| CN\1N(C(=O)\C(=C1C)C(=O)NC2=CC=C(OC3=CC=NC4=C3C(=C[NH]4)C5=CC=CC=C5)C(=C2)F)C6=CC=C(F)C=C6 [NPS-1034] | 14.8 | -59.9 |
| CNC(=O)Cn1cc(-c2ccc3c(c2)C(F)CC32NC(=O)N(CC(=O)N(Cc3ccc(F)cc3)C(C)C(F)(F)F)C2=O)cn1 (stereo not drawn) | 0.934 | -51.2 |
| O=C(C(c1ccccc1)c1ccccc1)N1CCN(CC(O)COc2cccc3ncccc23)CC1 (stereo not drawn) [Dofequidar] | 18.6 | -50.3 |
| C[N+](C)([O-])CCNc1ccc(NCC[N+](C)(C)[O-])c2c1C(=O)c1c(O)ccc(O)c1C2=O [Banoxantrone] | 2.09 | -45.2 |
| Cn1c(CCCCCCC(=O)NO)nc2cc(N(CCCl)CCCl)ccc21 [Tinostamustine] | 2.95 | -84.7 |
| Oc1ccc([C@@H]2Oc3ccc(O)cc3[C@@H]3CCC[C@@H]32)cc1 [Erteberel] | 7.42 | -73.8 |
| CCN(CC)C(=S)SSC(=S)N(CC)CC [Disulfiram] | 16.6 | -101 |

| Structure (SMILES) | AC50 cell viability (HCT116 [1]) [µM] | efficacy (HCT116 [2]) [%] |
| --- | --- | --- |
| C=CC(=O)Nc1ccc2ncnc(Nc3ccc(OCc4cccc(F)c4)c(Cl)c3)c2c1 [AST-1306] | 11.8 | -98.3 |
| COCCOC(=O)N1CCN([S+](=O)([O-])c2cc(F)c(Oc3ccc(Cl)cc3)c(F)c2)C(C(=O)NO)C1 (stereo not drawn) [XL-784] | 10.5 | -92.6 |
| COc1cc2c(cc1OC(C)C)[C@H](c1ccc(Cl)cc1)N(c1ccc(N(C)C[C@H]3CC[C@H](N4CCN(C)C(=O)C4)CC3)cc1)C(=O)C2 [CGM-097] | 14.8 | -123 |
| COc1ccc(Cl)c(Nc2nc3ccccc3nc2N[S+](=O)([O-])c2cccc(NC(=O)C(C)(C)N)c2)c1 [Pilaralisib] | 16.6 | -39.5 |
| COc1cc(N[S+](C)(=O)[O-])ccc1Nc1c2ccccc2nc2ccccc12 [Amsacrine] | 11.8 | -124 |
| CC[C@@](C)(Nc1ccnc(-c2c[nH]c3ncccc23)n1)C(=O)NCC(F)(F)F [Decernotinib] | 20.9 | -56.7 |
| [O-]C(=O)C1=C(C(=C(Cl)C(=C1Cl)Cl)Cl)C/2=C/3\C=C(I)/C(=O)/C(=C3OC4=C2C=C(I)C(=C4I)[O-])I [Rose Bengal disodium] | 16.6 | -47 |
| COc1cccc(Nc2ncnn3ccc(CN4CC[C@@H](N)[C@H](O)C4)c23)c1 | 18.6 | -71.1 |
| CC(C)C1=N[N](C\2=C1C(=O)N\C(=N2)CC3=CC=C(OCCO)C=C3)C4=C(Cl)C=CC=C4Cl | 0.0295 | -63.1 |
| CN1CCCN(C(=O)c2cccc(-c3ccc(/C=C4/C(=O)Nc5ccc(Cl)cc54)o3)c2)CC1 [CX-6258] | 7.42 | -97.8 |
| CC(C)OC1=C(F)C=C(C=C1)C2=N[N]([C@@H](C)C/3=C(C4=CC(=CC=C4)F)/C(=O)C5=CC(=CC=C5O3)F)C6=C2C(=NC=N6)N [Umbralisib] | 14.8 | -35.3 |
| C/C(NNC(=O)c1cccc([S+](=O)([O-])N2CCOCC2)c1)=C1\C=C(Cl)C=CC1=O [SP-2509] | 2.63 | -72 |
| Cc1c(NC(=O)OC[C@@H]2COCCN2)cn2ncnc(Nc3ccc4c(cnn4Cc4cccc(F)c4)c3)c12 [AC-480] | 20.9 | -82.6 |
| O=C(c1ccc(Nc2nccc(-c3cc4ccccc4s3)n2)cc1)N1CCC(N2CCCC2)CC1 [IKK-16] | 6.61 | -106 |
| Cc1ccc(Sc2ccccc2N2CCNCC2)c(C)c1 [Brintellix] | 11.8 | -92.6 |
| NC(=O)C/1=C(O)/[C@]2(O)[C@@H](C[C@@H]\3CC4=C(C(=CC=C4)O)\C(=C3C2=O)O)CC1=O [Incyclinide] | 16.6 | -69.4 |
| N[S+](=O)([O-])c1ccc([S+](=O)([O-])Nc2cccc3c(Cl)c[nH]c23)cc1 [Indisulam (E7070)] | 1.86 | -57.8 |
| CC(C)(C)c1[nH]cnc1/C=c1\[nH]c(=O)/c(=C/c2ccccc2)[nH]c1=O [Plinabulin] | 0.0525 | -58.4 |
| Nc1ccc(C(=O)c2cc3c(ccc4ccccc43)[nH]2)cc1 [IPFK2] | 4.81 | -102 |
